Several values for one entry are separate records, joined by “and”; a condition that tells them apart may be missing. Equal values may be shown once. Inconclusive results and toxic doses are left out. Rule as the data show it: active = T/C of 150% or more; inactive = T/C below 125%.
Tested on: L1210 leukemia ip in BDF1 mice, survival T/C
Experiment: NCI In Vivo Anticancer Drug Screen. Data for tumor model L1210 Leukemia (intraperitoneal) in B6D2F1 (BDF1) mice
Conditions: endpoint: mean survival time, higher = longer survival
In short: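 Antitumor effect is assessed in tumor-bearing animals. Survival in the compound arm is compared with a vehicle-dosed control arm and expressed as their quotient.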

[1] = dose: 100.0 mg/kg/injection, schedule: Q01DX001 (ip), vehicle: saline
[2] = dose: 200.0 mg/kg/injection, schedule: Q01DX001 (ip), vehicle: saline
[3] = dose: 400.0 mg/kg/injection, schedule: Q01DX001 (ip), vehicle: saline
[4] = dose: 30.0 mg/kg/injection, schedule: Q01DX Z (ip), vehicle: saline
[5] = dose: 60.0 mg/kg/injection, schedule: Q01DX Z (ip), vehicle: saline
[6] = dose: 100.0 mg/kg/injection, schedule: Q01DX009 (ip), vehicle: Klucel (hydroxypropylcellulose) (HPC)
[7] = dose: 200.0 mg/kg/injection, schedule: Q01DX009 (ip), vehicle: Klucel (hydroxypropylcellulose) (HPC)
[8] = dose: 400.0 mg/kg/injection, schedule: Q01DX009 (ip), vehicle: Klucel (hydroxypropylcellulose) (HPC)
[9] = dose: 25.0 mg/kg/injection, schedule: Q01DX009 (ip), vehicle: saline
[10] = dose: 50.0 mg/kg/injection, schedule: Q01DX009 (ip), vehicle: saline
[11] = dose: 100.0 mg/kg/injection, schedule: Q04DX003 (ip), vehicle: saline with Tween-80
[12] = dose: 15.0 mg/kg/injection, schedule: Q01DX Z (ip), vehicle: saline
[13] = dose: 120.0 mg/kg/injection, schedule: Q01DX Z (ip), vehicle: saline

Measured: T/C

O=C1c2cccc([N+](=O)[O-])c2C(=O)N1c1ncn[nH]1
inactive: dose: 44.0 mg/kg/injection, schedule: Q01DX001 (ip), vehicle: saline 93 % of control and 92 % of control | dose: 50.0 mg/kg/injection, schedule: Q01DX001 (ip), vehicle: saline 100 % of control | dose: 66.0 mg/kg/injection, schedule: Q01DX001 (ip), vehicle: saline 93 % of control and 102 % of control | [1] 95 % of control and 92 % of control | dose: 150.0 mg/kg/injection, schedule: Q01DX001 (ip), vehicle: saline 98 % of control | [2] 111 % of control | [3] 91 % of control

N=C(N)N=Nc1ccc(NN=C(N)N)cc1
inactive: dose: 3.75 mg/kg/injection, schedule: Q01DX Z (ip), vehicle: saline 96 % of control | dose: 7.5 mg/kg/injection, schedule: Q01DX Z (ip), vehicle: saline 103 % of control | [4] 118 % of control | [5] 98 % of control and 87 % of control

NC(=O)C1=C(N)c2ccccc2C1c1ccccc1 (stereo unspecified)
inactive: [1] 101 % of control | [2] 97 % of control | [3] 97 % of control

COc1ccc(Cl)cc1NC(=O)Nc1ccc(F)c([N+](=O)[O-])c1
inactive: [6] 106 % of control | [7] 104 % of control | [8] 102 % of control

COC(=O)c1cc(NS(=O)(=O)c2ccc(N)cc2)cc(C(=O)OC)c1
inactive: [1] 93 % of control | [2] 95 % of control | [3] 97 % of control

O=C1NC2CCC(NC(=O)N1c1ccccc1)C1=C2C1
inactive: dose: 3.13 mg/kg/injection, schedule: Q01DX009 (ip), vehicle: saline with Tween-80 94 % of control | dose: 6.25 mg/kg/injection, schedule: Q01DX009 (ip), vehicle: saline with Tween-80 90 % of control | dose: 6.25 mg/kg/injection, schedule: Q04DX003 (ip), vehicle: saline with Tween-80 106 % of control | dose: 12.5 mg/kg/injection, schedule: Q01DX009 (ip), vehicle: saline with Tween-80 97 % of control | dose: 12.5 mg/kg/injection, schedule: Q04DX003 (ip), vehicle: saline with Tween-80 94 % of control

CC(C)(COC(=O)c1ccccc1)COC(=O)c1ccccc1
inactive: [6] 116 % of control | dose: 100.0 mg/kg/injection, schedule: Q04DX003 (ip), vehicle: Klucel (hydroxypropylcellulose) (HPC) 96 % of control | [7] 93 % of control | dose: 200.0 mg/kg/injection, schedule: Q04DX003 (ip), vehicle: Klucel (hydroxypropylcellulose) (HPC) 107 % of control | [8] 93 % of control | dose: 400.0 mg/kg/injection, schedule: Q04DX003 (ip), vehicle: Klucel (hydroxypropylcellulose) (HPC) 98 % of control

COc1ccc(C(=O)/C(Br)=C/C(=O)O)cc1
inactive: dose: 12.5 mg/kg/injection, schedule: Q01DX009 (ip), vehicle: saline 102 % of control and 103 % of control and 108 % of control | dose: 12.5 mg/kg/injection, schedule: Q04DX003 (ip), vehicle: saline 94 % of control | [9] 98 % of control and 108 % of control (2×) | dose: 25.0 mg/kg/injection, schedule: Q04DX002 (ip), vehicle: saline 101 % of control | dose: 25.0 mg/kg/injection, schedule: Q04DX003 (ip), vehicle: saline 94 % of control | [10] 95 % of control and 110 % of control (2×) | dose: 50.0 mg/kg/injection, schedule: Q04DX002 (ip), vehicle: saline 105 % of control | dose: 50.0 mg/kg/injection, schedule: Q04DX003 (ip), vehicle: saline 108 % of control | dose: 100.0 mg/kg/injection, schedule: Q04DX002 (ip), vehicle: saline 112 % of control and 92 % of control

CCCc1nc2c(=O)[nH]cnc2o1
inactive: [11] 89 % of control | dose: 200.0 mg/kg/injection, schedule: Q04DX003 (ip), vehicle: saline with Tween-80 95 % of control | dose: 400.0 mg/kg/injection, schedule: Q04DX003 (ip), vehicle: saline with Tween-80 101 % of control

N=C(N)c1cccc(NC(=O)c2cccc(C(=O)Nc3cccc(C(=N)N)c3)c2)c1
inactive: [12] 95 % of control | [4] 98 % of control | [5] 98 % of control | [13] 93 % of control | dose: 125.0 mg/kg/injection, schedule: Q01DX Z (ip), vehicle: water 96 % of control | dose: 250.0 mg/kg/injection, schedule: Q01DX Z (ip), vehicle: water 98 % of control | dose: 500.0 mg/kg/injection, schedule: Q01DX Z (ip), vehicle: water 104 % of control

O=C1c2ccccc2C(=O)c2c1c(O)c1ccccc1c2O
inactive: dose: 100.0 mg/kg/injection, schedule: Q#A X Z (im), vehicle: other 96 % of control | dose: 100.0 mg/kg/injection, schedule: Q#A X Z (ip), vehicle: other 107 % of control | dose: 100.0 mg/kg/injection, schedule: Q#A X Z (sc), vehicle: other 100 % of control | dose: 200.0 mg/kg/injection, schedule: Q#A X Z (im), vehicle: other 97 % of control | dose: 200.0 mg/kg/injection, schedule: Q#A X Z (ip), vehicle: other 96 % of control | dose: 200.0 mg/kg/injection, schedule: Q#A X Z (sc), vehicle: other 107 % of control | dose: 300.0 mg/kg/injection, schedule: Q#A X Z (im), vehicle: other 94 % of control | dose: 300.0 mg/kg/injection, schedule: Q#A X Z (ip), vehicle: other 92 % of control | dose: 300.0 mg/kg/injection, schedule: Q#A X Z (sc), vehicle: other 97 % of control | dose: 400.0 mg/kg/injection, schedule: Q#A X Z (im), vehicle: other 94 % of control | dose: 400.0 mg/kg/injection, schedule: Q#A X Z (ip), vehicle: other 92 % of control | dose: 400.0 mg/kg/injection, schedule: Q#A X Z (sc), vehicle: other 96 % of control | dose: 500.0 mg/kg/injection, schedule: Q#A X Z (oral), vehicle: other 96 % of control | dose: 750.0 mg/kg/injection, schedule: Q#A X Z (oral), vehicle: other 100 % of control

Nc1cccc(OCCOc2cccc([N+](=O)[O-])c2)c1
inactive: [1] 101 % of control | [2] 95 % of control | [3] 98 % of control

CCOC(=O)c1c(C)c2c(n1C)CCC(C#N)C2=O (stereo unspecified)
inactive: dose: 100.0 mg/kg/injection, schedule: Q01DX001 (ip), vehicle: carboxymethylcellulose (CMC) 103 % of control | dose: 200.0 mg/kg/injection, schedule: Q01DX001 (ip), vehicle: carboxymethylcellulose (CMC) 97 % of control | dose: 400.0 mg/kg/injection, schedule: Q01DX001 (ip), vehicle: carboxymethylcellulose (CMC) 98 % of control

NC(=O)N/N=C/c1cccs1
inactive: dose: 25.0 mg/kg/injection, schedule: Q04DX003 (ip), vehicle: saline with Tween-80 95 % of control | dose: 50.0 mg/kg/injection, schedule: Q04DX003 (ip), vehicle: saline with Tween-80 103 % of control | [11] 106 % of control

COc1cc(/C=N/N=C(N)N)ccc1O
inactive: [12] 95 % of control | [4] 88 % of control | [5] 101 % of control | [13] 97 % of control | dose: 240.0 mg/kg/injection, schedule: Q01DX Z (ip), vehicle: saline 89 % of control

COC1=C2CCCCC2=[N+]2CCc3ccccc3C2C1 (stereo unspecified)
inactive: dose: 100.0 mg/kg/injection, schedule: Q01DX001 (ip), vehicle: Klucel (hydroxypropylcellulose) (HPC) 93 % of control

CC(C)(C)C1COC(=O)C1 (stereo unspecified)
inactive: dose: 10.0 mg/kg/injection, schedule: Q01DX001 (ip), vehicle: saline 103 % of control | dose: 20.0 mg/kg/injection, schedule: Q01DX001 (ip), vehicle: saline 98 % of control

CCc1cccc(OC/C=C(\C)CC/C=C(\C)CCC2OC2(C)C)c1 (stereo unspecified)
inactive: dose: 100.0 mg/kg/injection, schedule: Q04DX002 (ip), vehicle: saline with Tween-80 103 % of control | dose: 200.0 mg/kg/injection, schedule: Q04DX002 (ip), vehicle: saline with Tween-80 97 % of control | dose: 400.0 mg/kg/injection, schedule: Q04DX002 (ip), vehicle: saline with Tween-80 100 % of control

CC(=O)c1ccccc1C
inactive: [1] 104 % of control | [2] 112 % of control

CCN(CC)CCOC(=O)c1ccccc1N(c1ccccc1)c1ccccc1
inactive: [9] 98 % of control | [10] 98 % of control | dose: 62.5 mg/kg/injection, schedule: Q01DX015 (ip), vehicle: saline 91 % of control | [1] 92 % of control | dose: 100.0 mg/kg/injection, schedule: Q01DX009 (ip), vehicle: saline 98 % of control | dose: 100.0 mg/kg/injection, schedule: Q04DX003 (ip), vehicle: acetone 96 % of control | dose: 125.0 mg/kg/injection, schedule: Q01DX015 (ip), vehicle: saline 95 % of control | dose: 150.0 mg/kg/injection, schedule: Q01DX009 (ip), vehicle: acetone 96 % of control | [2] 103 % of control | [3] 98 % of control

— PubChem BioAssay AID248 (DTP/NCI, 2004)
